Results reported in patent US12018058B2, “Compositions and methods for diagnosing and/or treating kidney injury” (Boston Medical Center Corporation, priority 2018, dated 2024).

Legend:
PTEC = experiment: Toxicity of pharmacologic agents in PTEC; assay type: cell-based; conditions: exposure to the IC50 dose for 48-72 hr; data not shown
Excerpt: The inventors have also tested pharmacologic agents that disrupt NPM-Bax at specific steps in the cell death pathway (outlined in FIG. 11). These agents include geronylgeronylacetone (GGA), a potent Hsp70 inducer86, avrainvillamide, and NSC34888437. […] The inventors recently reported that GGA induces Hsp70 in murine PTEC and in the intact murine kidney. Hsp70 markedly reduces NPM-Bax complex formation during ischemic stress by 2 distinct mechanisms: a nucleolar-restricted Hsp70 mutant limits NPM translocation into the cytosol, whereas a cytosol restricted Hsp70 mutant sequesters […].

[1] = tested on: mice subjected to bilateral renal pedicle clamping; experiment: Ischemic AKI by bilateral renal pedicle clamping (BUN, creatinine, survival); assay type: in vivo, C57BL/6J mice; conditions: 28 min bilateral pedicle clamping
Excerpt: All animals were maintained under the guidance and policies of the Boston University Animal Core facility using National Institutes of Health (NIH) and Institutional Animal Care and Use Committee guidelines. Male and female C57BL/6J mice were purchased from Jackson Laboratory (Bar Harbor, ME), and they were housed and bred at the Boston University Animal Core facility under license number AN-15024. […] Animas were handled in a manner consistent with the NIH guide for their care and use under Institutional Animal Care and Use Committee approval.
Mice were subjected to bilateral renal pedicle clamping after being anesthetized with 2,2,2-tribromoethanol. […] 13,28,29 Slight variation in the clamp time was required to achieve similar degrees of renal dysfunction in the relatively large number of animals studied. The clamp was then removed, and reperfusion was confirmed by visual inspection of the kidneys. Sham ischemia was performed by encircling each renal pedicle with a nonocclusive ligature.
For in vitro testing in primary human PTECs, peptides ([…]) were tested that replicate the Bax domain responsible for binding NPM,34 or two peptides designed to interfere with NPM function were compared with a random nonspecific sequence of the same length (control). Peptides intended to interfere with NPM function overlap key phosphorylation sites located at the NPM amino terminus (peptide 2) or carboxy terminus (peptide 3) detected by mass spectrometry. To improve cell uptake, all peptides contained a cell-penetrating sequence13. For in vivo experiments, a renal-targeting sequence (NLS) was added to enhance renal peptide uptake.35 Peptides were commercially synthesized (Biomatik, Wilmington, DE) J Am Soc Nephrol 30: ccc-ccc, 2018 Nucleophosmin in AKI 3www.jasn.org BASIC RESEARCHas follows: NPM-Bax blocking peptide: Ac-KKKRKV-(bA)-[…]-COOH (SEQ ID NO: 8); peptide 2: AC-PKKKRKV-(bA)-[…]-COOH (SEQ ID NO: 9); and peptide 3: AC-PKKKRKV-(bA)-ESFKK-QEKTPKTPKGPSSVED-IKAK-COOH (SEQ ID NO: 10). […] A total of 42 control and 56 experimental animals were studied.
Transient exposure to metabolic inhibitors replicates ischemia in vivo by activating Bax and causing cell death.13,29,36-38 Cell viability was assayed using a modified colorimetric technique (MTTassay).37 The number of surviving cells is expressed as a percentage of viable control cells detected at baseline. Serum BUN and creatinine levels were measured in tail vein blood samples for 7 days after ischemia using QuantiChrom BUN or creatinine assay kits (BioAssay Systems, Hayward, CA) according to the manufacturer's instructions.

CC(=O)CC/C=C(\C)CC/C=C(\C)CC/C=C(\C)CCC=C(C)C [GGA, geronylgeronylacetone, reference compound] was tested, and the “PTEC morphology and toxicity” value (PTEC) was “does not alter PTEC morphology or cause significant toxicity”, the Animal survival [1] was “all survived” and the “Mean peak BUN” value [1] was 100 m/dl.
